Data on 1 molecule can be found in paper PMC6582486, “Stapled EGFR peptide reduces inflammatory breast cancer and inhibits additional HER-driven models of cancer” (Journal of Translational Medicine, 2019).

SMILES strings stand for the structures. Where a SMILES comes first, the peptide text is derived from it. Bridges are numbered along the chain shown (N, C = ends). [ ]: non-standard residue; d: D form. R8 = C=CCCCCCC[C@@](C)(N)C(=O)O; S5 = C=CCCC[C@](C)(N)C(=O)O

The nature of data set [1]: 28-day toxicity study: survival, NOAEL. The format is in vivo, CD-1 mice. As to conditions: for Survival (%): after 28 days, N = 10. How it is done:
Toxicology was performed by IITRI. The study was conducted in compliance with the US Food and Drug Administration (FDA) good laboratory practice (GLP) Regulations (Code of Federal Regulations Title 21 Part 58) to evaluate the toxicokinetics, local tolerability, immunogenicity, and potential toxicity of SAH5-EJ1 following three times per week intravenous (IV) dosing for 28 days in mice. Male and female CD-1 IGS [Crl:CD1(ICR)] mice (135 per sex) were received from Wilmington, MA-based Charles River Laboratories, Inc.’s Kingston facility (Stone Ridge, NY).
Finally, we confirmed the maximum tolerated dose of SAH5-EJ1, evaluating 5, 10, and 15 mg/kg body weight dosages (Table S3, Additional file 1). […] At 15 mg/kg, one male animal died from unknown causes and was classified as an accidental death. Therefore, 10 mg/kg was considered the no-observed-adverse-effect level (NOAEL). […] Increased spleen weights observed in 10 mg/kg and 15 mg/kg-treated mice most likely resulted from extramedullary hematopoiesis, also known as “blueberry muffin baby syndrome”, an asymptomatic event in which red blood cells accumulate outside of the bone marrow (Table S5, Additional file 1). Increased spleen size is likely due to an increase red blood cell production associated with IV injection-affiliated cell death. Clinical chemistry panels indicate that despite the high concentration of SAH5-EJ1 in the liver, liver function is not inhibited, with normal ranges of ALT/AST and total bilirubin (Table 2).
Male (M) and Female (F) mice. Not including mice for recovery study (additional 10 mice/sex), toxicokinetics (56 mice/sex), or immunogenicity (18 mice/sex). Accidental male deaths on day 27/28 at 5mg/kg dosage and day 22/28 at 15 mg/kg dosage. Female death on day 3/28 at 15mg/kg dosage with hypoactivity noted on day 1.

Data set [2] concerns CHO cells. Briefly: Cell viability assay (MTT), CHO. The class given is cell-based, Chinese Hamster. The following applies: 5 µM (Fig. 1h). An excerpt:
Fig. 1 Hydrocarbon stapling leads to increased EJ1 activity in comparison to HER-directed monoclonal therapies. a EJ1 sequence with PTD4 domain (underlined) corresponding to EGFR juxtamembrane domain sequence 643–663. Stabilized alpha helix (SAH) variations 1–5 beneath, with asterisks (*) indicating sites of staple. Control peptide (CP) with altered residues indicated by double underline. Stapled control (5) asterisks (*) indicate sites of staple. b Cartoon representation of EJ1 structure, with staple variation 5 highlighted. Positively charged residues indicated in blue, negatively charged residues in red. c Cartoon representation of CP structure, with staple variation highlighted. d Cell viability assay performed in MDA-MB-468 cells after 24 h comparing unstapled EJ1 versus staple variations SAH1, SAH4, and SAH5, with increasing concentrations. e Visualization of MDA-MB-468 cells untreated, treated with 10 µM EJ1, and 10 µM SAH5-EJ1 after 60 min. Scale bars represent 50 µm. f–h Cell viability assay performed in MDA-MB-468, MCF10A, or CHO cells over 3 days comparing treatment with Sapitinib (blue lines), SAH5-EJ1 (red lines), and SAH5-CP (grey lines). […] Absorbance was read at 540 nm by plate reader (uQuant, Bio-Tek Instruments). P-values were calculated from a one-way ANOVA.

Data set [3] relates to luciferized murine glioma (Ink4a/ARF-/-; hEGFRvIII). The data set is described as follows: Orthotopic EGFRvIII glioblastoma mouse model, survival. The format is in vivo, nude mice. The following applies: SAH5-EJ1 10 µg/g IV (N = 4), control peptide N = 6. Here is the method: Patient samples used were provided by the Biobank Core Facility at Barrow Neurological Institute. Samples were de-identified and conformed to the Biobank IRB protocol. Patient-derived cell lines (GB16 and GB71) were established from resected primary GBM tumor tissue. Tissue was processed using the Gentle MACS Dissociator and Tumor Tissue Dissociation kit (Miltenyi Biotec Inc.; Auburn, CA). Animal husbandry was performed according to the guidelines of St. Joseph Hospital and Medical Center and Barrow Neurological Institute under the Institutional Animal Care and Use Committee-approved protocol. Five- to six-week-old CrTac: NCr-Foxn1^nu nude mice (Taconic Biosciences; Hudson, NY) were used for in vivo orthotropic transplant of luciferized murine glioma model (Ink4a/ARF^−/−; hEGFRvIII). For orthotopic transplants, 2 μL of dissociated cells at a density of 100,000 cells/μL were injected in the right striatum, as described previously. In vivo tumor growth was measured by IVIS xenogen bioluminescence imaging (BLI) system after IP injection of 150 mg/kg Luciferin (Gold Biotechnology; St, Louis, MO) every week after 1-month post-surgery. […]
Fig. 2 SAH5-EJ1 enters cells, colocalizes with mitochondria, and survives in vivo, resulting in glioblastoma-derived cell death and glioma mouse model survival. […] H Luminescence distribution throughout organs. […]

By NOAEL is commonly meant the highest dose or exposure tested at which no adverse effect was seen. A word on the cell viability: it is the share of living cells, or the viability signal relative to a control. High values mean less harm to the cells, low ones more harm to the cells.

`CC[C@H](C)[C@H](NC(=O)[C@H](Cc1c[nH]cn1)NC(=O)[C@H](CCCNC(=N)N)NC(=O)[C@H](CCCNC(=N)N)NC(=O)[C@H](CCCNC(=N)N)NC(=O)[C@H](CCSC)NC(=O)[C@H](Cc1ccccc1)NC(=O)[C@H](C)NC(=O)[C@H](CCCNC(=N)N)NC(=O)[C@H](C)NC(=O)[C@H](CCC(N)=O)NC(=O)[C@H](CCCNC(=N)N)NC(=O)[C@H](C)NC(=O)[C@H](C)NC(=O)[C@H](C)NC(=O)[C@H](CCCNC(=N)N)NC(=O)[C@H](C)NC(=O)[C@@H](N)Cc1ccc(O)cc1)C(=O)N[C@H](C(=O)N[C@@H](CCCNC(=N)N)C(=O)N[C@@H](CCCCN)C(=O)N[C@@H](CCCNC(=N)N)C(=O)N[C@]1(C)CCCCCCC=CCCC[C@@](C)(C(=O)N[C@@H](CCCNC(=N)N)C(=O)N[C@@H](CCC(=O)O)C(N)=O)NC(=O)[C@H](CCC(N)=O)NC(=O)[C@H](CC(C)C)NC(=O)[C@H](CC(C)C)NC(=O)[C@H](CCCNC(=N)N)NC(=O)[C@H](CCCNC(=N)N)NC(=O)[C@H](CC(C)C)NC1=O)C(C)C` [SAH5-EJ1] (H-YARAAARQARAFMRRRHIVRKR[R8]LRRLLQ[S5]RE-NH2; staple 23-30): the “systemic or target organ toxicity” value in data set [1] (5, 10 and 15 mg/kg IV, 28-day repeat toxicity study) is “no evidence of any systemic or target organ toxicity”. Besides, in data set [1] (both sexes, CD-1, mouse, in vivo, IV three times per week, 28 days, mice, read-out: no-observed-adverse-effect level (NOAEL)), the NOAEL at 672 h was determined as 10 mg/kg. Also, the “Survival (%)” value in data set [1] (female, 5 mg/kg) was determined as 100%; in data set [1] (female, 10 mg/kg), 100%; in data set [1] (female, 15 mg/kg), 90%; in data set [1] (male, 5 mg/kg), 90%; in data set [1] (male, 10 mg/kg), 100%; in data set [1] (male, 15 mg/kg) it was 90%. In data set [2], this molecule returned a cell viability of 67%. Also, in data set [3], the “mice alive after 72 days” value was determined as 75%.
